Data on four cell lines can be found in the supplement of paper PMC10307832.

What all share (experiment): relative viability (nuclei count vs DMSO), 5 days (fraction); higher = more cells survive
Compound in the assay “Apatinib + Pictilisib”: N#CC1(c2ccc(NC(=O)c3cccnc3NCc3ccncc3)cc2)CCCC1 [Apatinib] + CS(=O)(=O)N1CCN(Cc2cc3nc(-c4cccc5[nH]ncc45)nc(N4CCOCC4)c3s2)CC1 [Pictilisib] (partner 1 µM)
The gist of the method:
(§1)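 The day after seeding in 1536-well plates, lung cancer cell lines were treated by pin tool with a single drug, or with a fixed anchor-drug dose together with five library-drug doses (not always all listed) in √10 steps. After 5 days, a combined fix-and-stain solution (final 0.05% Triton X-100, 1% formaldehyde, 1 ug/ml Hoechst) was added. Nuclei counted on 4× images gave relative viability as treated counts over vehicle counts, reported as the median of duplicate plates.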

Compound in the assay “Metformin + Phenformin”: CN(C)C(=N)NC(=N)N [Metformin] + N=C(N)NC(=N)NCCc1ccccc1 [Phenformin] (partner 250 µM)
In short, it runs like this: as §1

Compound in the assay “Apatinib + Trametinib”: N#CC1(c2ccc(NC(=O)c3cccnc3NCc3ccncc3)cc2)CCCC1 [Apatinib] + CC(=O)Nc1cccc(-n2c(=O)n(C3CC3)c(=O)c3c(Nc4ccc(I)cc4F)n(C)c(=O)c(C)c32)c1 [Trametinib] (partner 0.02 µM)
The gist of the method:
as §1

Compound in the assay “Apatinib + Vorinostat”: N#CC1(c2ccc(NC(=O)c3cccnc3NCc3ccncc3)cc2)CCCC1 [Apatinib] + O=C(CCCCCCC(=O)Nc1ccccc1)NO [Vorinostat] (partner 1 µM)
The gist of the method: as §1

On to HOP-62, for which the relative viability in the assay with Apatinib + Pictilisib (first compound 0.08 µM) stood at 0.85; with Apatinib + Pictilisib (first compound 0.8 µM), 0.816; with Apatinib + Pictilisib (first compound 2.53 µM), 0.758; with Apatinib + Pictilisib (first compound 8 µM) it was 0.466; with Metformin + Phenformin (first compound 10 µM), 0.486; in the assay with Metformin + Phenformin (first compound 31.62 µM) it was 0.577. Also, the relative viability with Metformin + Phenformin (first compound 100 µM) was 0.527; with Metformin + Phenformin (first compound 316.23 µM), 0.478; with Metformin + Phenformin (first compound 1000 µM), 0.593; with Apatinib + Trametinib (first compound 0.08 µM), 0.411; with Apatinib + Trametinib (first compound 0.253 µM), 0.395; with Apatinib + Trametinib (first compound 0.8 µM) it was 0.36. Besides, the relative viability with Apatinib + Trametinib (first compound 2.53 µM) was determined as 0.422; with Apatinib + Trametinib (first compound 8 µM) it was 0.394; in the assay with Apatinib + Vorinostat (first compound 0.08 µM) it was 0.613; with Apatinib + Vorinostat (first compound 0.253 µM), 0.679; with Apatinib + Vorinostat (first compound 0.8 µM), 0.567; in the assay with Apatinib + Vorinostat (first compound 2.53 µM), 0.476. Besides, the relative viability with Apatinib + Vorinostat (first compound 8 µM) amounted to 0.323.
In the case of LC-2-ad, the relative viability with Apatinib + Pictilisib (first compound 0.08 µM) came to 0.653; with Apatinib + Pictilisib (first compound 0.253 µM), 0.47; in the assay with Apatinib + Pictilisib (first compound 0.8 µM), 0.39; with Apatinib + Pictilisib (first compound 2.53 µM), 0.353; with Apatinib + Pictilisib (first compound 8 µM), 0.229; with Metformin + Phenformin (first compound 31.62 µM), 0.636. The relative viability in the assay with Metformin + Phenformin (first compound 100 µM) stood at 0.486; in the assay with Metformin + Phenformin (first compound 316.23 µM), 0.539; with Metformin + Phenformin (first compound 1000 µM) it was 0.592; with Apatinib + Trametinib (first compound 0.08 µM) it was 0.94; with Apatinib + Trametinib (first compound 0.253 µM), 0.926; in the assay with Apatinib + Trametinib (first compound 0.8 µM), 0.907. In addition, the relative viability in the assay with Apatinib + Trametinib (first compound 2.53 µM) was 0.678; with Apatinib + Trametinib (first compound 8 µM), 0.659; with Apatinib + Vorinostat (first compound 0.08 µM), 0.735; with Apatinib + Vorinostat (first compound 0.253 µM), 0.753; in the assay with Apatinib + Vorinostat (first compound 0.8 µM), 0.721; in the assay with Apatinib + Vorinostat (first compound 2.53 µM), 0.633. Further, in the assay with Apatinib + Vorinostat (first compound 8 µM), the relative viability is 0.665.
Turning to LCLC-97TM1, the relative viability was 0.221 in the assay with Apatinib + Pictilisib (first compound 0.08 µM); 0.147 with Apatinib + Pictilisib (first compound 0.253 µM); 0.216 with Apatinib + Pictilisib (first compound 0.8 µM); 0.316 in the assay with Apatinib + Pictilisib (first compound 2.53 µM); 0.143 with Apatinib + Pictilisib (first compound 8 µM); 0.478 with Metformin + Phenformin (first compound 10 µM). For the same cell line, the relative viability stood at 0.43 with Metformin + Phenformin (first compound 31.62 µM); 0.332 with Metformin + Phenformin (first compound 100 µM); 0.398 with Metformin + Phenformin (first compound 316.23 µM); 0.477 with Metformin + Phenformin (first compound 1000 µM); 0.221 with Apatinib + Trametinib (first compound 0.08 µM); 0.221 with Apatinib + Trametinib (first compound 0.253 µM). Besides, the relative viability turned out to be 0.179 in the assay with Apatinib + Trametinib (first compound 0.8 µM); 0.231 with Apatinib + Trametinib (first compound 2.53 µM); 0.182 with Apatinib + Trametinib (first compound 8 µM); 0.911 with Apatinib + Vorinostat (first compound 0.08 µM); 0.758 with Apatinib + Vorinostat (first compound 0.253 µM); 0.695 in the assay with Apatinib + Vorinostat (first compound 0.8 µM). In addition, the results for the relative viability with Apatinib + Vorinostat (first compound 2.53 µM) and with Apatinib + Vorinostat (first compound 8 µM) were 0.577 and 0.337, respectively.
With LCLC-103H, the relative viability with Apatinib + Pictilisib (first compound 0.08 µM) came out at 0.651; in the assay with Apatinib + Pictilisib (first compound 0.253 µM), 0.639; with Apatinib + Pictilisib (first compound 0.8 µM), 0.554; with Apatinib + Pictilisib (first compound 2.53 µM), 0.545; in the assay with Apatinib + Pictilisib (first compound 8 µM), 0.546; with Metformin + Phenformin (first compound 10 µM) it was 0.337. For the same cell line, the relative viability is 0.374 with Metformin + Phenformin (first compound 31.62 µM); 0.407 with Metformin + Phenformin (first compound 100 µM); 0.324 in the assay with Metformin + Phenformin (first compound 316.23 µM); 0.398 with Metformin + Phenformin (first compound 1000 µM); 0.702 in the assay with Apatinib + Trametinib (first compound 0.08 µM); 0.699 with Apatinib + Trametinib (first compound 0.253 µM). The relative viability in the assay with Apatinib + Trametinib (first compound 0.8 µM) worked out at 0.722; with Apatinib + Trametinib (first compound 2.53 µM), 0.713; in the assay with Apatinib + Trametinib (first compound 8 µM), 0.688; in the assay with Apatinib + Vorinostat (first compound 0.08 µM), 0.812; with Apatinib + Vorinostat (first compound 0.253 µM), 0.773; with Apatinib + Vorinostat (first compound 0.8 µM) it was 0.772. The relative viability in the assay with Apatinib + Vorinostat (first compound 2.53 µM) stood at 0.683; in the assay with Apatinib + Vorinostat (first compound 8 µM), 0.709.
